Reference: patent US20130296363A1, “QUINOLINE AND ISOQUINOLINE DERIVATIVES FOR USE AS JAK MODULATORS” (AMBIT BIOSCIENCES CORPORATION, priority 2010, published 2013)

Assays:
[1] = target: T1, JAK3 (Homo sapiens, UniProt P52333); assay: Competition binding assay to determine Kd against JAK kinases: JAK3
T1 construct: made in house
T1 sequence (P52333 1-1124): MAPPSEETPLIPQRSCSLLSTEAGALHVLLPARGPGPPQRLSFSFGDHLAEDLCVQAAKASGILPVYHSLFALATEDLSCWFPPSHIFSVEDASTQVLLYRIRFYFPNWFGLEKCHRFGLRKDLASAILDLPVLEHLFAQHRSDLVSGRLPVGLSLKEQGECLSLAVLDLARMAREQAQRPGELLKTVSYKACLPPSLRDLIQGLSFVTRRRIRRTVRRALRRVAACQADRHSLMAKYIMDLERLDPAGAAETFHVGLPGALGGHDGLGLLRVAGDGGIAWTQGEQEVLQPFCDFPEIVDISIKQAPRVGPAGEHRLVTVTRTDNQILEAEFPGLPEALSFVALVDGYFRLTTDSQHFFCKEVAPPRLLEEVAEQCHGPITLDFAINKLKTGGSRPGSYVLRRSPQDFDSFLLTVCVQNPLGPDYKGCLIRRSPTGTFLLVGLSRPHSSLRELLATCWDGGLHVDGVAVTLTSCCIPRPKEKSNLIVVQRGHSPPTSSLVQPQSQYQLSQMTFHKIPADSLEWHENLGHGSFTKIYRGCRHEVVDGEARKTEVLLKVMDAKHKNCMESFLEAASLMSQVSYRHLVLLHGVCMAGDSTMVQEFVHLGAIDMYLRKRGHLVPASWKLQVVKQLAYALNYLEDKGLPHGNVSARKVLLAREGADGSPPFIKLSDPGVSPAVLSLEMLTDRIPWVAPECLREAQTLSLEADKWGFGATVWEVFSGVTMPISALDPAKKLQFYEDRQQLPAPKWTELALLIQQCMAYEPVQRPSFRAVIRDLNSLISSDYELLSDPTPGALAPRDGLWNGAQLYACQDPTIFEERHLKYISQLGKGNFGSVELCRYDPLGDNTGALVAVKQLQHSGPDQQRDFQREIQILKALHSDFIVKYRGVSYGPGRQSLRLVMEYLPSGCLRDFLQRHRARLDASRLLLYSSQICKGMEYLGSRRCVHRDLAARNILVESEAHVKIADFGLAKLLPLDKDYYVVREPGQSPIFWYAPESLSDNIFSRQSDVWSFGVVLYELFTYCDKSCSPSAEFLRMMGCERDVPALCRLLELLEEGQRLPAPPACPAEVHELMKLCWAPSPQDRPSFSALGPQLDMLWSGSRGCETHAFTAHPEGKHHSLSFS
Procedure: (§1) Competition binding assays used herein were developed, validated and performed as described in Fabian et al., Nature Biotechnology 2005, 23, 329-336. Kinases were produced as fusions to T7 phage (See, Fabian et al. or WO04/015142) or alternatively, the kinases were expressed in HEK-293 cells and subsequently tagged with DNA for PCR detection (See, WO08/005,310). For the binding assays, streptavidin-coated magnetic beads were treated with biotinylated affinity ligands for 30 min at rt to generate affinity resins. The liganded beads were blocked with excess biotin and washed with blocking buffer (SeaBlock (Pierce), 1% BSA, 0.05% Tween 20, 1 mM DTT) to remove unbound ligand and to reduce non-specific binding. Binding reactions were assembled by combining kinase, liganded affinity beads, and test compounds in 1× binding buffer (20% SeaBlock, 0.17×PBS, 0.05% Tween 20, 6 mM DTT). Test compounds were prepared as 100× stocks in DMSO and rapidly diluted into the aqueous environment. DMSO was added to control assays lacking a test compound. Primary screen interactions were performed in polypropylene 384-well plates in a final volume of 34 μL, while Kd determinations were performed in polystyrene 96-well plates in a final volume of 135 μL. The assay plates were incubated at room temperature with shaking for 1 hour, long enough for binding reactions to reach equilibrium, and the affinity beads were washed extensively with wash buffer (1×PBS, 0.05% Tween 20) to remove unbound protein. The beads were then resuspended in elution buffer (1×PBS, 0.05% Tween 20, 2 μM non-biotinylated affinity ligand) and incubated at room temperature with shaking for 30 min. The kinase concentration in the eluates was measured by quantitative PCR. Each kinase was tested individually against each compound. Kds were determined using eleven serial threefold dilutions. A selectivity score, which is a quantitative measure of selectivity of a compound against a panel of enzymes, may be calculated for a compound by dividing the number of enzymes for which a compound meets a set criteria, (for example, a binding constant of 100 nM or less), by the total number of enzymes tested.

[2] = target: T2, TYK2 (Homo sapiens, UniProt P29597); assay: Competition binding assay to determine Kd against JAK kinases: TYK2
T2 construct: made in house
Procedure: as §1

[3] = test system: GM-CSFR/JAK2/STAT5 pathway in CSTF-1 cells; assay: CSTF-1 cell-based reporter assay (beta-lactamase reporter, GM-CSF stimulated); conditions: Homo sapiens, GM-CSF at 2 ng/mL, 4 hours, read-out: Cell Assay: CS TF-1 reporter assay IC50
Procedure: CSTF-1 cells are derived from the human erythroleukemia cell line that is growth dependent on GM-CSF and has an intact GM-CSFR/JAK2/STAT5 pathway. The cell line contains stably integrated beta-lactamase reporter gene under the control of the […] (irf 1) response element recognized by the activated transcription factor STAT5. csTF-1 cells (Invitrogen K1219) were washed with assay media (97% OPTIMEM/0.5% dialyzed FBS/0.1 mM NEAA/1 mM Na pyr/P/S) and seeded in the same media at 5×10^5 cell/mL in T150 flask. After 16 hour incubation, cells were seeded at 2×10^5 cell/well in 50 μl volume, into Costar, clear bottom, 96-well assay plates. Serial dilutions of compounds were added to the plates with final DMSO concentration at 0.5% and GM-CSF at 2 ng/mL and the plates were then incubated at 30° C. and 5% CO2 for 4 hours. The plates were brought to room temperature before adding Substrate Mixture according to manufacturer's protocol (Invitrogen, Catalog #K1085). The assay plates containing the substrate mixture were incubated in the dark at room temperature for 2 hours. Blue and green fluorescence was measured with excitation at 409 nm and emission at 460 nm (for blue) and excitation at 409 nm and emission at 530 nm (for green) using Spectra Max Gemini EM.

[4] = target: T3, JAK2 (Homo sapiens, UniProt O60674); assay: Competition binding assay to determine Kd against JAK kinases: JAK2
T3 construct: made in house
Procedure: as §1

[5] = test system: panel of distinct kinases excluding mutant variants, typically 359 or 386 kinases; assay: Kinase selectivity score S10 from competition binding panel; conditions: compound at 10 μM; fraction of kinases with inhibition of 90% or greater
Procedure: as §1

T2 sequence (P29597 whole entry): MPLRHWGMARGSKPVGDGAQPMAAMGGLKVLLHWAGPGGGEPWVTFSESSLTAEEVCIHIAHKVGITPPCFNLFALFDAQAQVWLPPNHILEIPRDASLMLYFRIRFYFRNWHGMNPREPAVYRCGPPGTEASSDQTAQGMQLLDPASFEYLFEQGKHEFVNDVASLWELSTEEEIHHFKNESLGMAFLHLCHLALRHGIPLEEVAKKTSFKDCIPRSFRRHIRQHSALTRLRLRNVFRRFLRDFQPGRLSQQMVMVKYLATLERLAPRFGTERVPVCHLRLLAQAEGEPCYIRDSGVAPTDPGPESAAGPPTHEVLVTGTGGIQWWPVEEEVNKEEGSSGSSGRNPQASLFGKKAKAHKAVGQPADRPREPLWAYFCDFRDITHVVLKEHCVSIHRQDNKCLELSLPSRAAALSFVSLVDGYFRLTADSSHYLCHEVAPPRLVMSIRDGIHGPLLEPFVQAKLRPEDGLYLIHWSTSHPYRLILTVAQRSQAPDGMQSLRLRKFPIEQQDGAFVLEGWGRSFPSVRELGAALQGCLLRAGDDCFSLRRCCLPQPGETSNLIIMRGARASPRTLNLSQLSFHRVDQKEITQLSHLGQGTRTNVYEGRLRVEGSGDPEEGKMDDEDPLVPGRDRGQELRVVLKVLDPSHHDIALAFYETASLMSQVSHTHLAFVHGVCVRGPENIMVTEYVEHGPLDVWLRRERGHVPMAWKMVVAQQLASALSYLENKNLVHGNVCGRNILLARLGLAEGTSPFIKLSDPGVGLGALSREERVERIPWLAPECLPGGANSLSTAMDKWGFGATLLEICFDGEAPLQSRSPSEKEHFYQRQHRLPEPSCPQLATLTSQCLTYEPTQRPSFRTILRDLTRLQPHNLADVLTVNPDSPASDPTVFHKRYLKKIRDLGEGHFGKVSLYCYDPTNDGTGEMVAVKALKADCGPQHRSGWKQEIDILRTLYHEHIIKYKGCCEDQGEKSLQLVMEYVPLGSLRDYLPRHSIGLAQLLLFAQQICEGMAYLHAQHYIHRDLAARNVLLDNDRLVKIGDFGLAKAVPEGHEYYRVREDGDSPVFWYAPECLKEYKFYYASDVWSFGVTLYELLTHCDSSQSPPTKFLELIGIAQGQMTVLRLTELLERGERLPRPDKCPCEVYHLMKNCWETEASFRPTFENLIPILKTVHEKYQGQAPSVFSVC
T3 sequence (O60674 whole entry): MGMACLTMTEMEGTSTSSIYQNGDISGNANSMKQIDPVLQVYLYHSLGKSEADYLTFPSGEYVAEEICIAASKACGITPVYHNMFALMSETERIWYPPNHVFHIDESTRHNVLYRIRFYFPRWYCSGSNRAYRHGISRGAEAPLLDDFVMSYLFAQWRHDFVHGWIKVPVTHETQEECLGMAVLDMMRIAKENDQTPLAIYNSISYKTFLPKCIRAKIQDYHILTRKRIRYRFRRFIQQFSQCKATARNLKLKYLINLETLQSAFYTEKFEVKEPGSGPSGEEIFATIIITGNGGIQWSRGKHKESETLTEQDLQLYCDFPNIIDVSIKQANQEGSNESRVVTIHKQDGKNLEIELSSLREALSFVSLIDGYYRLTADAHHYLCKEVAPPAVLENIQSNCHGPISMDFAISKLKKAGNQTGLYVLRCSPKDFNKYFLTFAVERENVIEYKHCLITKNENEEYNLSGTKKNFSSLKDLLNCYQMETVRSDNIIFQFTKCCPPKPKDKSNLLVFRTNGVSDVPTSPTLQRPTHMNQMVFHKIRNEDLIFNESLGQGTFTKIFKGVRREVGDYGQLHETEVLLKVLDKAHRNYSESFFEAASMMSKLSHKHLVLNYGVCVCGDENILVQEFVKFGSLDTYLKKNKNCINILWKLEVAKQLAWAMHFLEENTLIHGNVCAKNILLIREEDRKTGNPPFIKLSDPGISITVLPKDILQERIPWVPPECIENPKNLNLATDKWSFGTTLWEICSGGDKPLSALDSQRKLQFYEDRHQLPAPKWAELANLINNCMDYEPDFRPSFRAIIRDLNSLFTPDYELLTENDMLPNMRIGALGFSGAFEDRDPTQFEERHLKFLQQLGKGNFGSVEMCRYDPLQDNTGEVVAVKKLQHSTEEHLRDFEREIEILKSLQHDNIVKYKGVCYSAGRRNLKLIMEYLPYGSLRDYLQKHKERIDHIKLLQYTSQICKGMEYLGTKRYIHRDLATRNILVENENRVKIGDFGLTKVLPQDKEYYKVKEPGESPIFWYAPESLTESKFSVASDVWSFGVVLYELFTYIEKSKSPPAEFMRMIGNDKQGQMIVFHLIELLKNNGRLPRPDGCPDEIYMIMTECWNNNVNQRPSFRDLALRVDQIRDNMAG

SMILES | Kd [1] | Kd [2] | IC50 [3] | Kd [4] | S-Score: S(10) at 10 μM [5]
[2H]C([2H])([2H])n1cnc(Nc2nc(S(=O)(=O)c3ccc(F)cc3)cc3ccccc23)c1 [Example 24, 3-((4-fluorophenyl)sulfonyl)-N-(1-methyl-d3-1H-imidazol-4-yl)isoquinolin-1-amine] | ≤ 10 nM | ≤ 10 nM | ≤ 100 nM | ≤ 5 nM | B (0.3 < B ≦ 0.4)
O=S(=O)(c1ccc(F)cc1)c1cc2ccccc2c(Nc2ncns2)n1 [Example 18, N-(3-(4-fluorophenylsulfonyl)isoquinolin-1-yl)-1,2,4-thiadiazol-5-amine] | 10 to 100 nM | ≤ 10 nM | 100 to 500 nM | ≤ 5 nM | B (0.3 < B ≦ 0.4)
Cc1cc(Nc2nc([S+]([O-])c3ccc(F)cc3)cc3ccccc23)n[nH]1 (stereo not shown) [Example 13, 3-(4-fluorophenylsulfinyl)-N-(5-methyl-1H-pyrazol-3-yl)isoquinolin-1-amine] | ≤ 10 nM | ≤ 10 nM | ≤ 100 nM | ≤ 5 nM | D (D > 0.5)
Cc1cnc(Nc2nc([S+]([O-])c3ccc(F)cc3)cc3ccccc23)s1 (stereo not shown) [Example 12, N-(3-(4-fluorophenylsulfinyl)isoquinolin-1-yl)-5-methylthiazol-2-amine] | 10 to 100 nM | ≤ 10 nM | ≤ 100 nM | ≤ 5 nM | C (0.4 < C ≦ 0.5)
CCn1cnc(Nc2nc(S(=O)(=O)c3ccc(F)cc3)cc3ccccc23)c1 [Example 25, N-(1-ethyl-1H-imidazol-4-yl)-3-((4-fluorophenyl)sulfonyl)isoquinolin-1-amine] | ≤ 10 nM | ≤ 10 nM | ≤ 100 nM | ≤ 5 nM | C (0.4 < C ≦ 0.5)
O=S(=O)(c1ccc(F)cc1)c1cc2ccccc2c(Nc2ncco2)n1 [Example 23, N-(3-(4-fluorophenylsulfonyl)isoquinolin-1-yl)oxazol-2-amine] | > 100 nM | > 100 nM | > 500 nM | > 50 nM | A (A ≦ 0.3)
Cc1cc(Nc2nc(C(O)c3ccc(F)cc3)cc3ccccc23)n[nH]1 (racemic) [Example 2, (R,S)-(4-fluorophenyl)(1-(5-methyl-1H-pyrazol-3-ylamino)isoquinolin-3-yl)methanol] | ≤ 10 nM | ≤ 10 nM | ≤ 100 nM | ≤ 5 nM | 
Cc1coc(Nc2nc([S+]([O-])c3ccc(F)cc3)cc3ccccc23)n1 (racemic) [Example 22, (R,S)—N-(3-(4-fluorophenylsulfinyl)isoquinolin-1-yl)-4-methyloxazol-2-amine] | > 100 nM |  | > 500 nM | > 50 nM | A (A ≦ 0.3)
O=S(=O)(c1ccc(F)cc1)c1cc2ccccc2c(Nc2cc[nH]n2)n1 [Example 14, 3-(4-fluorophenylsulfonyl)-N-(1H-pyrazol-3-yl)isoquinolin-1-amine] | ≤ 10 nM | ≤ 10 nM | ≤ 100 nM | ≤ 5 nM | B (0.3 < B ≦ 0.4)
O=S(=O)(c1ccc(F)cc1)c1cc2ccccc2c(Nc2cc(O)[nH]n2)n1 [Example 19, 3-(3-(4-fluorophenylsulfonyl)isoquinolin-1-ylamino)-1H-pyrazol-5-ol] | > 100 nM | 10 to 100 nM | > 500 nM | 5 to 50 nM | A (A ≦ 0.3)
Cc1cnc(Nc2nc(S(=O)(=O)c3ccc(F)cc3)cc3ccccc23)s1 [Example 16, N-(3-(4-fluorophenylsulfonyl)isoquinolin-1-yl)-5-methylthiazol-2-amine] | ≤ 10 nM | ≤ 10 nM | ≤ 100 nM | ≤ 5 nM | B (0.3 < B ≦ 0.4)
Cn1cnc(Nc2nc(S(=O)(=O)c3ccc(F)cc3)cc3ccccc23)c1 [Example 20, 3-(4-fluorophenylsulfonyl)-N-(1-methyl-1H-imidazol-4-yl)isoquinolin-1-amine] | ≤ 10 nM | ≤ 10 nM | ≤ 100 nM | ≤ 5 nM | C (0.4 < C ≦ 0.5)
COc1cc(Nc2nc(S(=O)(=O)c3ccc(F)cc3)cc3ccccc23)n[nH]1 [Example 15, 3-(4-fluorophenylsulfonyl)-N-(5-methoxy-1H-pyrazol-3-yl)isoquinolin-1-amine] | ≤ 10 nM | ≤ 10 nM | ≤ 100 nM | ≤ 5 nM | D (D > 0.5)
O=S(=O)(c1ccc(F)cc1)c1cc2ccccc2c(Nc2nccs2)n1 [Example 17, N-(3-(4-fluorophenylsulfonyl)isoquinolin-1-yl)thiazol-2-amine] | 10 to 100 nM | 10 to 100 nM | 100 to 500 nM | ≤ 5 nM | A (A ≦ 0.3)
Cc1cc(Nc2nc(S(=O)(=O)c3ccc(F)cc3)cc3ccccc23)n[nH]1 [Example 10, 3-(4-fluorophenylsulfonyl)-N-(5-methyl-1H-pyrazol-3-yl)isoquinolin-1-amine] | ≤ 10 nM | ≤ 10 nM | ≤ 100 nM | ≤ 5 nM | D (D > 0.5)
[O-][S+](c1ccc(F)cc1)c1cc2ccccc2c(Nc2nccs2)n1 (stereo not shown) [Example 11, N-(3-(4-fluorophenylsulfinyl)isoquinolin-1-yl)thiazol-2-amine] | 10 to 100 nM |  | ≤ 100 nM | ≤ 5 nM | A (A ≦ 0.3)
Cc1cc(Nc2nc(S(=O)(=O)c3ccc(F)cc3)cc3c(Br)cccc23)n[nH]1 [Example 26, 5-bromo-3-((4-fluorophenyl)sulfonyl)-N-(5-methyl-1H-pyrazol-3-yl)isoquinolin-1-amine] | ≤ 10 nM | ≤ 10 nM | ≤ 100 nM | ≤ 5 nM | A (A ≦ 0.3)
